Data as given in patent publication US4626547A, “Antibiotic AM-2604-A, an anti-trichomonas agent, anti-caccidium agent, anti-viral agent and anti-fungal agent containing the same and methods of use of the same” (The Kitasato Institute, priority 1982, dated 1986).
≈ marks a conversion by molar mass, not a printed value. Entries after “also recorded” stand apart in the source; their conditions may differ.

What was measured:
Xanthomonas oryzae = experiment: microbe, parasite or virus in culture; type: cell-based
Botrytis cinerea = experiment: MIC by agar dilution method; type: cell-based
Text: (§1) The minimum inhibitory concentrations (MIC) of the antibiotic substance as determined by the agar dilution method are shown in Table 1 below.

Alternaria kikuchiana = experiment: MIC by agar dilution method; type: cell-based
Text: as §1

[1] = system: Bacillus subtilis ATCC 6633; experiment: MIC by agar dilution method; type: cell-based; details: ATCC6633
Text: as §1

[2] = system: Micrococcus luteus ATCC 9341; experiment: MIC by agar dilution method; type: cell-based; details: ATCC9341
Text: as §1

Candida albicans = experiment: MIC by agar dilution method; type: cell-based
Text: as §1

[3] = system: Trichophyton interdigitale; experiment: MIC by agar dilution method; type: cell-based
Text: as §1

Aspergillus niger = experiment: MIC by agar dilution method; type: cell-based
Text: as §1

[4] = system: Mycobacterium smegmatis ATCC 607; experiment: MIC by agar dilution method; type: cell-based; details: Mycolicibacterium smegmatis, ATCC607
Text: as §1

[5] = system: Staphylococcus aureus ATCC 65389; experiment: MIC by agar dilution method; type: cell-based; details: ATCC65389
Text: as §1

Mucor racemosus = experiment: MIC by agar dilution method; type: cell-based
Text: as §1

Saccharomyces sake = experiment: MIC by agar dilution method; type: cell-based
Text: as §1

Monilinia fructicola = experiment: MIC by agar dilution method; type: cell-based
Text: as §1

Fusarium oxysporum = experiment: MIC by agar dilution method; type: cell-based
Text: as §1

[6] = system: Proteus vulgarius IFO 3167; experiment: MIC by agar dilution method; type: cell-based
Text: as §1

Escherichia coli NIHJ = experiment: MIC by agar dilution method; type: cell-based
Text: as §1

Microsporum gypseum = experiment: MIC by agar dilution method; type: cell-based; details: Nannizzia gypsea
Text: as §1

[7] = system: Herpes virus Type No. 2 (HSV-2); experiment: Antiviral plaque-formation reduction in CE cells; type: cell-based; details: Human alphaherpesvirus 2, 72 h, 20 h pretreatment, 3 days, read-out: 50% Effective Dose (ED50)
fungi [8] = experiment: Antifungal activity (summary); type: cell-based
Gram-negative bacteria = experiment: Antibacterial activity against Gram-negative bacteria (summary); type: cell-based
Trichomonas foetus = experiment: Infection-therapy test of Trichomonas foetus-infected mice; type: in vivo, mice infected with Trichomonas foetus; details: for Number of Mice That Died / Cured Mice / Living Mice with Formation of Ascites / Mice with Trichomonas foetus: oral; for Cured Mice / Living Mice with Formation of Ascites / Mice with Trichomonas foetus: 7 days
Method: An infection-therapy test of Trichomonas foetus-infected mice was performed as follows:
Mice were divided into groups of ten. Trichomonas foetus was cultivated at 37° C. on a Trichocel broth with 5% inactivated calf serum added (produced by BBL Co.) for 48 hours. One milliliter of the Trichomonas foetus-containing solution (4×10^6 cells/ml) was injected intraperitoneally into mice having a weight of about 20 g. […]
The infection-therapy effect was judged as follows:
Seven days after the injection of Trichomonas foetus, the formation of ascites was examined. In the case of mice in which ascites was formed, the ascites were taken out and the presence of Trichomonas foetus was examined using a microscope.

Eimeria tenella = experiment: Effectiveness on coccidium-infected chicken; type: in vivo, white leghorn male chicks infected with Eimeria tenella; details: for Disorder of Cecum, grade - (Normal): chicks per group with grade -; for Disorder of Cecum, grade ± (Minor): chicks per group with grade ±; for Ratio of Increment of Weight: non-infected control = 1.00
Method: The potency of the antibiotic substance on coccidium-infected chickens was determined as follows:
Two-week-old white leghorn male chicks were divided into four groups of ten each. The feed used in this assay was a commercially available chick-breeding standard feed (major components: 19% crude protein, 2.5% crude fat, 5.0% crude fiber, 8.0% crude ash, 0.7% calcium, and 0.55% phosphorus).
One day after the start of feeding, 2×10^4 mature oocysts of Eimeria tenella per chick were orally administered to the chicks of the groups (Groups 1, 2 and 3) except for a non-infected control group (Group 4). Thereafter, the chicks of Groups 1 and 2 were bred by feeding the standard feed containing 0.005% and 0.0l% of the antibiotic substance, respectively, and Groups 3 and 4 were bred by feeding only the standard feed.
During the breeding period, the weight of each chick was measured, and the blood in the feces was observed. Furthermore, the number of oocysts in the feces 7 days after the infection of the oocysts were counted, and the disorder of cecum was examined by necropsy. In this way, the anti-coccidium action of the antibiotic substance was determined.
The items in Table 3 are as follows: [formula]
The amount of blood from the intestine of the chick is judged from the number of blood stains.
+ Minor, but slight disorder is observed.
++ Moderate hypertrophy is observed.
+++ Serious (disorder is very significant)
Number of oocysts per gram of the feces 7 days after the infection

[9] = system: Newcastle disease virus (NDV); experiment: microbe, parasite or virus in culture; type: cell-based; details: avian paramyxovirus 1, 96 h; read-out: 50% Effective Dose (ED50)
[10] = system: DIE strain of vaccinia virus (Vac-DIE); experiment: microbe, parasite or virus in culture; type: cell-based; details: Orthopoxvirus vaccinia, 96 h; read-out: 50% Effective Dose (ED50)
Sindbis virus (Sb) = experiment: Antiviral plaque-formation reduction in CE cells; type: cell-based; details: 48 h, 20 h pretreatment, 2 days, read-out: 50% Effective Dose (ED50)
Gram-positive bacteria = experiment: Antibacterial activity against Gram-positive bacteria (summary); type: cell-based
Piricularia oryzae = experiment: microbe, parasite or virus in culture; type: cell-based
[11] = system: Vesicular stomatitis virus (VSV); experiment: microbe, parasite or virus in culture; type: cell-based; details: 48 h, read-out: 50% Effective Dose (ED50)
Solubility in solvents = type: physicochemical
[12] = system: IHD strain of vaccinia virus (Vac-IHD); experiment: microbe, parasite or virus in culture; type: cell-based; details: Orthopoxvirus vaccinia, 96 h; read-out: 50% Effective Dose (ED50)
DNA or RNA viruses = experiment: Antiviral activity (summary); type: cell-based, virus
[13] = system: Herpes virus Type No. 1 (HSV-1); experiment: Antiviral plaque-formation reduction in CE cells; type: cell-based; details: Human alphaherpesvirus 1, 72 h, 20 h pretreatment, 3 days, read-out: 50% Effective Dose (ED50)
[14] = system: Western equine encephalitis virus (WEE); experiment: microbe, parasite or virus in culture; type: cell-based; details: 48 h, read-out: 50% Effective Dose (ED50)
[15] = Toxicity testing, intraperitoneal injection; details: mouse, in vivo, ip, mice
Method: The toxicity testing of the antibiotic AM-2604-A substance was performed using mice by the intraperitoneal injection method.

fungi [16] = details: known antibiotic substances, literature; cited from earlier work
[17] = drug amount administered 4 mg/kg
[18] = drug amount administered 8 mg/kg

SMILES: C/C=C/C1OC(O)(C(C)C(O)C(C)C2OC(=O)C(OC)=CC(C)=CC(C)C(O)C(CC)C(O)C(C)CC(C)=CC=CC2OC)CC(OC(=O)/C=C/C(=O)NC2=C(O)CCC2=O)C1C (stereo not shown) [AM-2604-A]
- MIC (Xanthomonas oryzae): > 50 µg/mL
- MIC (Botrytis cinerea): > 50 µg/mL
- MIC (Alternaria kikuchiana): > 50 µg/mL
- MIC [1]: > 100 µg/mL
- MIC [2]: > 100 µg/mL
- MIC (Candida albicans): > 100 µg/mL
- MIC [3]: 50 µg/mL (≈ 56.4 µM)
- MIC (Aspergillus niger): > 100 µg/mL
- MIC [4]: > 100 µg/mL
- MIC [5]: > 100 µg/mL
- MIC (Mucor racemosus): 50 µg/mL (≈ 56.4 µM)
- MIC (Saccharomyces sake): 100 µg/mL (≈ 113 µM)
- MIC (Monilinia fructicola): 12.5 µg/mL (≈ 14.1 µM)
- MIC (Fusarium oxysporum): > 100 µg/mL
- MIC [6]: > 100 µg/mL
- MIC (Escherichia coli NIHJ): > 100 µg/mL
- MIC (Microsporum gypseum): 50 µg/mL (≈ 56.4 µM)
- EC50 [7]: 0.0003 µg/mL (≈ 0.000339 µM)
- activity against fungi (in words) (fungi [8]): active
- activity against Gram-negative bacteria (in words) (Gram-negative bacteria): little antibacterial activity
- Number of Mice That Died (Trichomonas foetus; [17]): 2/10
- Cured Mice (Trichomonas foetus; [17]): 5/10
- Living Mice with Formation of Ascites (Trichomonas foetus; [17]): 2/10
- Mice with Trichomonas foetus (Trichomonas foetus; [17]): 5/10
- Number of Mice That Died (Trichomonas foetus; [18]): 1/10
- Cured Mice (Trichomonas foetus; [18]): 8/10
- Living Mice with Formation of Ascites (Trichomonas foetus; [18]): 1/10
- Mice with Trichomonas foetus (Trichomonas foetus; [18]): 2/10
- anti-trichomonas action (in words) (Trichomonas foetus; summary of Table 4): excellent anti-trichomonas action; also recorded: active
- Increment of Weight (Eimeria tenella; Group 1, 0.005% in feed): 1.83
- Disorder of Cecum, grade + (Minor, but slight disorder is observed) (Eimeria tenella; Group 1, 0.005% in feed, chicks per group with grade +): 1/10
- Disorder of Cecum, grade - (Normal) (Eimeria tenella; Group 1, 0.005% in feed): 8/10
- Disorder of Cecum, grade ± (Minor) (Eimeria tenella; Group 1, 0.005% in feed): 1/10
- Ratio of Increment of Weight (Eimeria tenella; Group 1, 0.005% in feed): 0.99
- Increment of Weight (Eimeria tenella; Group 2, 0.01% in feed): 1.86
- Number of Oocysts (on the average) (Eimeria tenella; Group 2, 0.01% in feed, 7 days after the infection): 0 per gram of the feces
- Disorder of Cecum, grade - (Normal) (Eimeria tenella; Group 2, 0.01% in feed): 9/10
- Disorder of Cecum, grade ± (Minor) (Eimeria tenella; Group 2, 0.01% in feed): 1/10
- Ratio of Increment of Weight (Eimeria tenella; Group 2, 0.01% in feed): 1.01
- anticoccidium action (in words) (Eimeria tenella; summary of Table 3): excellent anticoccidium action; also recorded: active
- EC50 [9]: 0.0003 µg/mL (≈ 0.000339 µM)
- EC50 [10]: 0.0003 µg/mL (≈ 0.000339 µM)
- EC50 (Sindbis virus (Sb)): 0.0005 µg/mL (≈ 0.000564 µM)
- activity against Gram-positive bacteria (in words) (Gram-positive bacteria): little antibacterial activity; also recorded: almost inactive
- MIC (Piricularia oryzae): 12.5 µg/mL (≈ 14.1 µM)
- EC50 [11]: 0.0003 µg/mL (≈ 0.000339 µM)
- Solubility in organic solvents such as chloroform, acetone, and ethyl acetate (Solubility in solvents; chloroform, acetone, ethyl acetate): Soluble
- Solubility in lower alcohols (Solubility in solvents; lower alcohols): sparingly soluble
- Solubility in n-hexane and water (Solubility in solvents; n-hexane and water): insoluble
- EC50 [12]: 0.0003 µg/mL (≈ 0.000339 µM)
- activity against viruses (in words) (DNA or RNA viruses): high inhibitory activity; also recorded: active
- EC50 [13]: 0.0003 µg/mL (≈ 0.000339 µM)
- EC50 [14]: 0.0003 µg/mL (≈ 0.000339 µM)
- LD50 [15]: 3 mg/kg

SMILES: COC1=CC(C)=CC(C)C(O)C(C)CC(C)=CC=CC(OC)C(C(C)C(O)C(C)C2(O)CC(OC(=O)/C=C/C(=O)NC3=C(O)CCC3=O)C(C)C(C(C)C)O2)OC1=O (stereo not shown) [Setamycin]
- activity against fungi of known antibiotics (in words) (fungi [16]): active
